Assay results as given in the supplement of paper PMC10307832.

Tests used:
Experiment in all cases: relative viability (nuclei count vs DMSO), 5 days (fraction); higher = more cells survive
[1] = compound: CN1CCN(CC1)C2=CC(=C(C=C2)NC3=NC=C4C(=N3)N(C5=CC=CC=C5C(=O)N4C)C)OC [XMD8-85] + O=C(c1cc(Cc2n[nH]c(=O)c3ccccc23)ccc1F)N1CCN(C(=O)C2CC2)CC1 [Olaparib] (partner 8 µM)
In short: (§1)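 Values are medians from duplicate plates. Each reflects relative viability, defined as the nuclei count of treated wells over that of vehicle wells. Lung cancer cell lines in 1536-well plates were pin-tool dosed one day after seeding with one drug alone or with a fixed anchor-drug dose plus five library-drug doses (not always all listed) in √10 steps, then fixed, stained and imaged at 4× after 5 days.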

[2] = compound: O=C(O)C(Cc1ccccc1[N+](=O)[O-])=NNc1nc(-c2ccc(Cl)c(Cl)c2)cs1 (mixture of isomers) [4EGI-1] + C[C@@H](Oc1cc(-c2cnn(C3CCNCC3)c2)cnc1N)c1c(Cl)ccc(F)c1Cl [Crizotinib] (partner 1 µM)
In short: as §1

[3] = compound: O=C(O)C(Cc1ccccc1[N+](=O)[O-])=NNc1nc(-c2ccc(Cl)c(Cl)c2)cs1 (mixture of isomers) [4EGI-1] + COc1cccc2cc(-c3nc([C@H]4CC[C@H](C(=O)O)CC4)n4ncnc(N)c34)[nH]c12 [OSI-027] (partner 0.5 µM)
In short: as §1

[4] = compound: O=C(O)C(Cc1ccccc1[N+](=O)[O-])=NNc1nc(-c2ccc(Cl)c(Cl)c2)cs1 (mixture of isomers) [4EGI-1] + CC(=O)Nc1cccc(-n2c(=O)n(C3CC3)c(=O)c3c(Nc4ccc(I)cc4F)n(C)c(=O)c(C)c32)c1 [Trametinib] (partner 0.02 µM)
In short: as §1

Cell Line: A549
- relative viability ([1]; first compound 0.08 µM): 0.192
- relative viability ([1]; first compound 0.253 µM): 0.371
- relative viability ([1]; first compound 0.8 µM): 0.306
- relative viability ([1]; first compound 2.53 µM): 0.234
- relative viability ([1]; first compound 8 µM): 0.227
- relative viability ([2]; first compound 0.5 µM): 0.742
- relative viability ([2]; first compound 1.581 µM): 0.683
- relative viability ([2]; first compound 5 µM): 0.787
- relative viability ([2]; first compound 15.81 µM): 0.669
- relative viability ([2]; first compound 50 µM): 0.0783

Cell Line: COR-L 105
- relative viability ([1]; first compound 0.08 µM): 0.7
- relative viability ([1]; first compound 0.8 µM): 0.692
- relative viability ([1]; first compound 2.53 µM): 0.58
- relative viability ([1]; first compound 8 µM): 0.455
- relative viability ([3]; first compound 0.5 µM): 0.937
- relative viability ([3]; first compound 1.581 µM): 0.572
- relative viability ([3]; first compound 5 µM): 0.718
- relative viability ([3]; first compound 15.81 µM): 0.434
- relative viability ([3]; first compound 50 µM): 0.535
- relative viability ([2]; first compound 0.5 µM): 0.722
- relative viability ([2]; first compound 1.581 µM): 0.626
- relative viability ([2]; first compound 5 µM): 0.789
- relative viability ([2]; first compound 15.81 µM): 0.887
- relative viability ([2]; first compound 50 µM): 0.784
- relative viability ([4]; first compound 0.5 µM): 0.462
- relative viability ([4]; first compound 1.581 µM): 0.444
- relative viability ([4]; first compound 5 µM): 0.44
- relative viability ([4]; first compound 15.81 µM): 0.401
- relative viability ([4]; first compound 50 µM): 0.394

Cell Line: NCI-H650
- relative viability ([1]; first compound 0.08 µM): 0.403
- relative viability ([1]; first compound 0.253 µM): 0.395
- relative viability ([1]; first compound 0.8 µM): 0.375
- relative viability ([1]; first compound 2.53 µM): 0.387
- relative viability ([1]; first compound 8 µM): 0.279
- relative viability ([3]; first compound 0.5 µM): 0.6
- relative viability ([3]; first compound 5 µM): 0.565
- relative viability ([3]; first compound 15.81 µM): 0.5
- relative viability ([3]; first compound 50 µM): 0.443
- relative viability ([2]; first compound 0.5 µM): 0.847
- relative viability ([2]; first compound 5 µM): 0.811
- relative viability ([2]; first compound 15.81 µM): 0.596
- relative viability ([2]; first compound 50 µM): 0.59
- relative viability ([4]; first compound 0.5 µM): 1.07
- relative viability ([4]; first compound 5 µM): 1.02
- relative viability ([4]; first compound 15.81 µM): 0.984
- relative viability ([4]; first compound 50 µM): 0.833

Cell Line: NCI-H1975
- relative viability ([1]; first compound 0.08 µM): 0.774
- relative viability ([1]; first compound 0.253 µM): 0.784
- relative viability ([1]; first compound 0.8 µM): 0.88
- relative viability ([1]; first compound 2.53 µM): 0.711
- relative viability ([1]; first compound 8 µM): 0.376
- relative viability ([3]; first compound 0.5 µM): 0.837
- relative viability ([3]; first compound 1.581 µM): 0.665
- relative viability ([3]; first compound 5 µM): 0.792
- relative viability ([3]; first compound 15.81 µM): 0.74
- relative viability ([3]; first compound 50 µM): 0.391
- relative viability ([2]; first compound 0.5 µM): 0.951
- relative viability ([2]; first compound 1.581 µM): 0.889
- relative viability ([2]; first compound 5 µM): 0.939
- relative viability ([2]; first compound 15.81 µM): 0.972
- relative viability ([2]; first compound 50 µM): 0.636
- relative viability ([4]; first compound 0.5 µM): 0.341
- relative viability ([4]; first compound 1.581 µM): 0.32
- relative viability ([4]; first compound 5 µM): 0.325
- relative viability ([4]; first compound 15.81 µM): 0.289
- relative viability ([4]; first compound 50 µM): 0.212

Cell Line: NCI-H2023
- relative viability ([1]; first compound 0.08 µM): 0.42
- relative viability ([1]; first compound 0.253 µM): 0.452
- relative viability ([1]; first compound 0.8 µM): 0.508
- relative viability ([1]; first compound 2.53 µM): 0.487
- relative viability ([1]; first compound 8 µM): 0.285
- relative viability ([3]; first compound 0.5 µM): 0.712
- relative viability ([3]; first compound 5 µM): 0.359
- relative viability ([3]; first compound 15.81 µM): 0.162
- relative viability ([3]; first compound 50 µM): 0.0791
- relative viability ([2]; first compound 0.5 µM): 0.766
- relative viability ([2]; first compound 5 µM): 0.637
- relative viability ([2]; first compound 15.81 µM): 0.442
- relative viability ([2]; first compound 50 µM): 0.302
- relative viability ([4]; first compound 0.5 µM): 0.865
- relative viability ([4]; first compound 5 µM): 0.593
- relative viability ([4]; first compound 15.81 µM): 0.214
- relative viability ([4]; first compound 50 µM): 0.0814

Cell Line: EMC-BAC-2
- relative viability ([1]; first compound 0.08 µM): 0.498
- relative viability ([1]; first compound 0.253 µM): 0.465
- relative viability ([1]; first compound 0.8 µM): 0.487
- relative viability ([1]; first compound 2.53 µM): 0.477
- relative viability ([1]; first compound 8 µM): 0.417
- relative viability ([3]; first compound 0.5 µM): 0.39
- relative viability ([3]; first compound 1.581 µM): 0.342
- relative viability ([3]; first compound 5 µM): 0.4
- relative viability ([3]; first compound 15.81 µM): 0.374
- relative viability ([3]; first compound 50 µM): 0.327
- relative viability ([2]; first compound 0.5 µM): 0.776
- relative viability ([2]; first compound 1.581 µM): 0.594
- relative viability ([2]; first compound 5 µM): 0.706
- relative viability ([2]; first compound 15.81 µM): 0.627
- relative viability ([2]; first compound 50 µM): 0.306
- relative viability ([4]; first compound 0.5 µM): 0.989
- relative viability ([4]; first compound 5 µM): 0.928
- relative viability ([4]; first compound 15.81 µM): 0.878
- relative viability ([4]; first compound 50 µM): 0.652

Cell Line: LK-2
- relative viability ([1]; first compound 0.08 µM): 0.802
- relative viability ([1]; first compound 0.253 µM): 0.815
- relative viability ([1]; first compound 0.8 µM): 0.555
- relative viability ([1]; first compound 2.53 µM): 0.669
- relative viability ([1]; first compound 8 µM): 0.448
- relative viability ([3]; first compound 0.5 µM): 0.196
- relative viability ([3]; first compound 5 µM): 0.201
- relative viability ([3]; first compound 15.81 µM): 0.182
- relative viability ([3]; first compound 50 µM): 0.178
- relative viability ([2]; first compound 0.5 µM): 0.244
- relative viability ([2]; first compound 5 µM): 0.253
- relative viability ([2]; first compound 15.81 µM): 0.256
- relative viability ([2]; first compound 50 µM): 0.216
- relative viability ([4]; first compound 0.5 µM): 0.841
- relative viability ([4]; first compound 1.581 µM): 0.529
- relative viability ([4]; first compound 5 µM): 0.944
- relative viability ([4]; first compound 15.81 µM): 0.75
- relative viability ([4]; first compound 50 µM): 0.609

Cell Line: EPLC-272H
- relative viability ([1]; first compound 0.08 µM): 0.853
- relative viability ([1]; first compound 0.253 µM): 0.579
- relative viability ([1]; first compound 0.8 µM): 0.747
- relative viability ([1]; first compound 2.53 µM): 0.458
- relative viability ([1]; first compound 8 µM): 0.387
- relative viability ([3]; first compound 0.5 µM): 0.317
- relative viability ([3]; first compound 5 µM): 0.285
- relative viability ([3]; first compound 15.81 µM): 0.274
- relative viability ([3]; first compound 50 µM): 0.172
- relative viability ([2]; first compound 0.5 µM): 0.929
- relative viability ([2]; first compound 1.581 µM): 0.505
- relative viability ([2]; first compound 5 µM): 1.03
- relative viability ([2]; first compound 15.81 µM): 0.94
- relative viability ([2]; first compound 50 µM): 0.947
- relative viability ([4]; first compound 0.5 µM): 0.308
- relative viability ([4]; first compound 5 µM): 0.339
- relative viability ([4]; first compound 15.81 µM): 0.249
- relative viability ([4]; first compound 50 µM): 0.226

Cell Line: HCC-366
- relative viability ([1]; first compound 0.08 µM): 0.231
- relative viability ([1]; first compound 0.253 µM): 0.358
- relative viability ([1]; first compound 0.8 µM): 0.385
- relative viability ([1]; first compound 8 µM): 0.242
- relative viability ([3]; first compound 0.5 µM): 0.922
- relative viability ([3]; first compound 1.581 µM): 0.742
- relative viability ([3]; first compound 5 µM): 1.13
- relative viability ([3]; first compound 15.81 µM): 0.669
- relative viability ([3]; first compound 50 µM): 0.277
- relative viability ([2]; first compound 0.5 µM): 0.641
- relative viability ([2]; first compound 1.581 µM): 0.277
- relative viability ([2]; first compound 5 µM): 0.605
- relative viability ([2]; first compound 15.81 µM): 0.506
- relative viability ([2]; first compound 50 µM): 0.529
- relative viability ([4]; first compound 0.5 µM): 0.454
- relative viability ([4]; first compound 1.581 µM): 0.272
- relative viability ([4]; first compound 5 µM): 0.429
- relative viability ([4]; first compound 15.81 µM): 0.262
- relative viability ([4]; first compound 50 µM): 0.0891
